Data taken from US12428420B2, “Tricyclic heterocycles as FGFR inhibitors” (Incyte Corporation, priority 2021, dated 2025).

Experiments:
[1] = biological target: wild-type un-phosphorylated FGFR3 protein (Homo sapiens, UniProt P22607); experiment: FGFR Enzymatic Assay (FRET peptide phosphorylation); format: biochemical; settings: pre-incubated for 4 hours
Description: The inhibitor potency of the exemplified compounds was determined in an enzyme discontinuous assay that measures peptide phosphorylation using FRET measurements to detect product formation. Inhibitors were serially diluted in DMSO and a volume of 0.2 μL was transferred to the wells of a 384-well plate. A 5 μL/well volume of enzyme isoforms of FGFR (-1, -2, -3 wild-type and mutant isoforms, -4) including phosphorylated and un-phosphorylated proteins diluted in assay buffer (50 mM HEPES, 10 mM MgCl2, 1 mM EGTA, 0.01% Tween-20, 5 mM DTT, pH 7.5) was added to the plate and pre-incubated with inhibitor for 5 to 15 minutes at ambient temperature. Appropriate controls (enzyme blank and enzyme with no inhibitor) were included on the plate. The reaction was initiated by the addition of a 5 μL/well volume containing both biotinylated [sequence] peptide substrate (SEQ ID NO: 1) and ATP in assay buffer. The 10 μL/well reaction concentration of the peptide substrate was 500 nM whereas the ATP concentration was maintained near or below the ATP Km. The ATP Km values were pre-determined in a separate series of experiments. The reaction plate was incubated at 25° C. for 1 hr and the reactions were ended with the addition of 5 μL/well of quench solution (50 mM Tris, 150 mM NaCl, 0.5 mg/mL BSA, pH 7.8; 45 mM EDTA, 600 nM staurosporin, with Perkin Elmer Lance Reagents at 3.75 nM Eu-antibody PY20 and 180 nM APC-Streptavidin). The plate was allowed to equilibrate for ˜10 minutes at ambient temperature before scanning on a PheraStar plate reader (BMG Labtech) instrument.
Either GraphPad prism or XLfit was used to analyze the data. The IC50 values were derived by fitting the data to a four parameter logistic equation producing a sigmoidal dose-response curve with a variable Hill coefficient. Prism equation: Y=Bottom+(Top−Bottom)/(1+10^((Log IC50−X)*Hill slope)); XLfit equation: Y=(A+((B−A)/(1+((X/C)^D)))) where X is the logarithm of inhibitor concentration and Y is the response.

RT-112/84 cell line = experiment: Luminescent Viability Assay (CellTiter-Glo); format: cell-based; settings: RT-112/84 cell line (bladder, FGFR3-TACC3), 3 days
Description: RT112 cells (cell lines and genetic profiles further detailed in Table 2) were purchased from ATCC (Manassas, VA) and maintained in RPMI, 10% FBS (Gibco/Life Technologies). To measure the effect of test compounds on the viability of cells, the cells were plated with RPMI 10% FBS (5×10^3 cells/well/in 50 μL) into black 96-well Greiner polystyrene in the presence or absence of 50 μL of a concentration range of test compounds. After 3 days, 100 μL of CellTiter-Glo Reagent (Promega) was added. Luminescence was read with a TopCount (PerkinElmer). IC50 determination was performed by fitting the curve of percent inhibition versus the log of the inhibitor concentration using the GraphPad Prism 5.0 software.

wild-type un-phosphorylated FGFR3 protein, sequence (P22607 23-806): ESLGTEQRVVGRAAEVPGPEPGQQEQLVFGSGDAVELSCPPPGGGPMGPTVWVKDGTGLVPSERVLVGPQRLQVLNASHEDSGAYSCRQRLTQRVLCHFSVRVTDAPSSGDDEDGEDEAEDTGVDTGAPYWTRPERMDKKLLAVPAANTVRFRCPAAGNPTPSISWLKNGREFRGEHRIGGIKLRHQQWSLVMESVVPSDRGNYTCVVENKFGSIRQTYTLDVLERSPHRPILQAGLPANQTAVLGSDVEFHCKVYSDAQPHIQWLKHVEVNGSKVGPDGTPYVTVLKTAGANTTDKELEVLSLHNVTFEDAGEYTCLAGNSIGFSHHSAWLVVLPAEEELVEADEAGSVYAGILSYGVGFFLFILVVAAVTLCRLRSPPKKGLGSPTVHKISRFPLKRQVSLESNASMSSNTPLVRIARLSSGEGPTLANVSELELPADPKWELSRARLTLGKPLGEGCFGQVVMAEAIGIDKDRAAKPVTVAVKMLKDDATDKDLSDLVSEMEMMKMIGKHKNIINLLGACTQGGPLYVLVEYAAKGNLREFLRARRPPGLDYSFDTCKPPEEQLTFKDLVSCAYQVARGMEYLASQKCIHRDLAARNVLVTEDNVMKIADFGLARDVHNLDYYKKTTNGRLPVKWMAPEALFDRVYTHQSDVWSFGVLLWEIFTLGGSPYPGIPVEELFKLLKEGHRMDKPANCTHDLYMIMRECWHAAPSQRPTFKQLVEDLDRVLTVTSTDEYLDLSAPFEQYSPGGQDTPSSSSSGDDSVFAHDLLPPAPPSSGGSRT

| Compound | IC50 [1] [nM] | IC50 (RT-112/84 cell line; Homo sapiens, RT112/84, 72 h) [nM] | IC50 (RT-112/84 cell line) [nM] |
| --- | --- | --- | --- |
| CC(=O)N1CCC(n2cc(-c3cnc4ccn5c(CO)c(-c6c(Cl)cccc6Cl)nc5c4c3)cn2)CC1 [Example 20, 1-(4-(4-(2-(2,6-Dichlorophenyl)-3-(hydroxymethyl)imidazo[2,1-f][1,6]naphthyridin-9-yl)-1H-pyrazol-1-yl)piperidin-1-yl)ethan-1-one] | < 1 | < 10 | – |
| CC(O)Cn1cc(-c2cnc3ccn4c(CO)c(-c5c(Cl)cccc5Cl)nc4c3c2)cn1 (single isomer, unassigned) [18 peak 1] | 1 to 5 | 10 to 50 | – |
| Cc1cccc(Cl)c1-c1nc2c3cc(-c4cnn(CC(C)(C)O)c4)cnc3ccn2c1CO [Example 22, 1-(4-(2-(2-Chloro-6-methylphenyl)-3-(hydroxymethyl)imidazo[2,1-f][1,6]naphthyridin-9-yl)-1H-pyrazol-1-yl)-2-methylpropan-2-ol] | 1 to 5 | 10 to 50 | – |
| N#CCn1cc(-c2cnc3ccn4c(C(F)F)c(-c5c(Cl)cccc5Cl)nc4c3c2)cn1 [Example 29, 2-(4-(2-(2,6-Dichlorophenyl)-3-(difluoromethyl)imidazo[2,1-f][1,6]naphthyridin-9-yl)-1H-pyrazol-1-yl)acetonitrile] | < 1 | < 10 | – |
| CC(C)(C(N)=O)n1cc(-c2cnc3ccn4c(C(F)F)c(-c5c(Cl)cccc5Cl)nc4c3c2)cn1 [Example 33, 2-(4-(2-(2,6-Dichlorophenyl)-3-(difluoromethyl)imidazo[2,1-f][1,6]naphthyridin-9-yl)-1H-pyrazol-1-yl)-2-methylpropanamide] | < 1 | < 10 | – |
| CC(CC#N)n1cc(-c2cnc3ccn4c(CO)c(-c5c(Cl)cccc5Cl)nc4c3c2)cn1 (single isomer, unassigned) [23 peak 1] | < 1 | 10 to 50 | – |
| O=S1(=O)CCCC(n2cc(-c3cnc4ccn5c(CO)c(-c6c(Cl)cccc6Cl)nc5c4c3)cn2)C1 (single isomer, unassigned) [26 peak 2] | < 1 | – | < 10 |
| O=C(c1ccc(-c2cnc3ccn4c(CO)c(-c5c(Cl)cccc5Cl)nc4c3c2)cc1)N1C[C@@H]2C[C@H]1CO2 [Example 7, ((1S,4S)-2-Oxa-5-azabicyclo[2.2.1]heptan-5-yl)(4-(2-(2,6-dichlorophenyl)-3-(hydroxymethyl)imidazo[2,1-f][1,6]naphthyridin-9-yl)phenyl)methanone] | 1 to 5 | 10 to 50 | – |
| N#Cc1ccc(Cn2cc(-c3cnc4ccn5c(CO)c(-c6c(Cl)cccc6Cl)nc5c4c3)cn2)cn1 [Example 3, 5-((4-(2-(2,6-Dichlorophenyl)-3-(hydroxymethyl)imidazo[2,1-f][1,6]naphthyridin-9-yl)-1H-pyrazol-1-yl)methyl)picolinonitrile] | < 1 | < 10 | – |
| CCn1cc(-c2cnc3ccn4c(CO)c(-c5c(Cl)cccc5Cl)nc4c3c2)cn1 [Example 15, (2-(2,6-Dichlorophenyl)-9-(1-ethyl-1H-pyrazol-4-yl)imidazo[2,1-f][1,6]naphthyridin-3-yl)methanol] | 1 to 5 | < 10 | – |
| OCc1c(-c2c(Cl)cccc2Cl)nc2c3cc(-c4cnn(Cc5ccnc(C(F)(F)F)c5)c4)cnc3ccn12 [Example 5, (2-(2,6-Dichlorophenyl)-9-(1-((2-(trifluoromethyl)pyridin-4-yl)methyl)-1H-pyrazol-4-yl)imidazo[2,1-f][1,6]naphthyridin-3-yl)methanol] | 1 to 5 | < 10 | – |
| CC(C)(C#N)n1cc(-c2cnc3ccn4c(CO)c(-c5c(Cl)cccc5Cl)nc4c3c2)cn1 [Example 16, 2-(4-(2-(2,6-Dichlorophenyl)-3-(hydroxymethyl)imidazo[2,1-f][1,6]naphthyridin-9-yl)-1H-pyrazol-1-yl)-2-methylpropanenitrile] | 1 to 5 | 10 to 50 | – |
| CN1CCC(n2cc(-c3cnc4ccn5c(CCO)c(-c6c(Cl)cccc6Cl)nc5c4c3)cn2)CC1 [Example 34, 2-(2-(2,6-Dichlorophenyl)-9-(1-(1-methylpiperidin-4-yl)-1H-pyrazol-4-yl)imidazo[2,1-f][1,6]naphthyridin-3-yl)ethan-1-ol] | 1 to 5 | 10 to 50 | – |
